Measurements reported in EP1234878A1, “USE OF DISEASE-ASSOCIATED GENE” (Takeda Chemical Industries, Ltd., priority 1999, dated 2001).

Test system: human CLCA1 protein, SEQ ID NO: 2 (human CLCA1 expressing CHO cells)
Assay: Cl- ion secretion assay using human CLCA1-expressing CHO cells (MEQ fluorescence, ionomycin stimulation)
Format: cell-based
Settings: anionic transport inhibitor added at 200 µM or 10 µM (FIG. 11), room temperature for 30 minutes, then ionomycin 10 µM; Cl- ion fluorescence indicator MEQ
Protocol: Human CLCA1-expressing plasmid pcDNA-hCLCA1 shown in EXAMPLE 6 was transfected to CHO cells using Gene transfer lyo (manufactured by Wako Pure Chemical Industries, Ltd.) in accordance with the attached manual. The cells were subjected to selective culture for 10 days in MEM-α medium (manufactured by GIBCO BRL) supplemented with 1 mg/ml of neomycin (G418) (manufactured by GIBCO BRL) to obtain the cells grown as human CLCA1 expressing CHO cells. The human CLCA1 expressing CHO cells and parent CHO cells were seeded on a 96-well plate (manufactured by Packard Inc.) coated with 2 µg/ml of fibronectin (manufactured by Itoham Foods, Inc.), respectively, in a concentration of 4 x 10^4 cells/well, followed by culturing at 37°C for 24 hours under 5% CO2. After completion, the culture solution was washed once with a buffer solution containing no Cl^- ions (2.4 mM K2HPO4, 0.6 mM KH2PO4, 10 mM D-glucose, 1 mM MgSO4, 1 mM CaSO4, 135 mM NaNO3, 10 mM HEPES, pH 7.4), and 1 mM of Cl^- ion fluorescence indicator 6-methoxy-N-ethylquinolinium iodide (MEQ, manufactured by Moelcular Probes, Inc.) was added in an amount of 100 µl/well to the culture solution, followed by incubation at 37°C for further 2 hours. The culture solution was further washed twice with a Cl^- ion-containing buffer solution (2.4 mM K2HPO4, 0.6 mM KH2PO4, 10 mM D-glucose, 1 mM MgSO4, 1 mM CaSO4, 135 mM NaCl, 10 mM HEPES, pH 7.4), and then allowed to stand at room temperature for 30 minutes. Each well was replaced by the buffer solution containing no Cl^- ions and ionomycin was added to make the concentration of 10 µM. Immediately thereafter, the fluorescence intensity was measured at an excited wavelength of 355 nm and a measurement wavelength of 460 nm, usingamulti-label counter Wallac1420ARVOsx (manufactured by Amersham Pharmacia Biotech).
When stimulated with 10 µM ionomycin (manufactured by Wako Pure Chemical Industries, Inc.), the fluorescence intensity increased in human CLCA1 expressing CHO cells by about twice, as compared to the parent CHO cells (FIG. 10). […]

Row | Compound | increase of the fluorescence intensity by ionomycin stimulation of human CLCA1 expressing CHO cells
1 | O=S(=O)(O)c1cc(N=C=S)ccc1C=Cc1ccc(N=C=S)cc1S(=O)(=O)O [4,4'-diisothiocyanastilbene-2,2'-disulfonic acid] | suppressed
2 | O=C(O)c1cccnc1Nc1cccc(C(F)(F)F)c1 [niflumic acid] | suppressed
3 | O[C@H](CS)[C@H](O)CS (racemic) [dithiothreitol] | suppressed
